Laboratory results reported in publication PMC6388989 (Cancer Management and Research, 2019).
“Also recorded” adds a separate entry of the source.

Assays:
NCI-H460 cells [1] = format: cell-based, human
NCI-H460 cells [2] = format: cell-based, human; remark: listed apart in the source
[3] = tested on: marker genes in NCI-H460 cells; format: cell-based, human; conditions: 48 hours
H460 cells [4] = format: cell-based, human
H460 cells [5] = format: cell-based, human; remark: listed apart in the source
NIH-3T3 cells = conditions: at 50 µM
NCI-H460 cells [6] = format: cell-based, human; conditions: 48 hours
NCI-H460 cells [7] = format: cell-based, human; conditions: 48 hours; remark: listed apart in the source
NCI-H460 cells [8] = format: cell-based, human; remark: listed apart in the source
NCI-H460 cells [9] = format: cell-based, human; conditions: 48 hours; remark: listed apart in the source
[10] = tested on: protein markers in NCI-H460 cells; format: cell-based, human; conditions: 48 hours

C=C(C)[C@@H]1CC[C@]2(CO)CC[C@]3(C)[C@H](CC[C@@H]4[C@@]5(C)CC[C@H](O)C(C)(C)[C@@H]5CC[C@]43C)[C@@H]12 [Betulin (3), Lup-20 (29)-ene-3, 28-diol]
reduction in wound healing rates of treated vs untreated cells (NCI-H460 cells [1]): approximate threefold reduction
activity against cancer cells compared to normal 3t3 cells (NCI-H460 cells [2]): four times more active
morphology of 3T3 cells (3T3 cells): regained their normal morphology and started to propagate
BAK gene expression [3]: upregulated
BAX gene expression [3]: upregulated
BCL-2L1 gene expression [3]: significantly downregulated
COX-2 gene expression [3]: inhibited
HRK gene expression [3]: upregulation
VEGF gene expression [3]: inhibited
caspase-3 gene expression [3]: significantly upregulated
caspase-6 gene expression [3]: significantly upregulated
caspase-8 gene expression [3]: inhibited; also recorded: significantly downregulated
caspase-9 gene expression [3]: significantly upregulated
p53 gene expression [3]: significantly downregulated
morphological changes of H460 cells (H460 cells [4]): membrane blebbing and formation of apoptotic bodies
colony formation (H460 cells [5]): completely eradicated cancer cells
cytotoxicity to normal NIH-3T3 cells (NIH-3T3 cells): noncytotoxic
mitochondrial membrane potential (Δψm) (NCI-H460 cells [6]): collapse of MMP
invasive ability of NCI-H460 cells (NCI-H460 cells [7]): inhibited in a dose-dependent manner
induction of apoptosis (FACS) (NCI-H460 cells [8]): significantly underwent apoptosis in a dose-dependent manner
nuclear morphology (NCI-H460 cells [9]): highly condensed nucleus, apoptotic bodies and DNA fragmentation
BCL-2L1 protein expression (immunocytochemistry) [10]: marked inhibition
caspase-3 protein expression (immunofluorescence) [10]: significant upregulation
caspase-6 protein expression (immunofluorescence) [10]: significant upregulation
caspase-8 protein expression (immunofluorescence) [10]: decreased with the increase in betulin treatment
expression of proliferative marker Ki-67 [10]: significant inhibition
osteopontin levels (immunocytochemistry) [10]: positively inhibited
